Reference: patent US11369565B2, “Amino-pyrimidine skeletal muscle modulators” (Cytokinetics, Inc., priority 2010, dated 2022)

Tested on: rabbit skeletal myofibrils (approximately 90% fast fibers)
Assay: Activation of fast skeletal myofibrils (PUMA coupled-enzyme ATPase assay at pCa25)
Assay type: biochemical
Details: concentration at which the compound increased the enzymatic activity by 40%; calcium at pCa25; PM12 buffer pH 6.8
Outline: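 Detergent-washed rabbit psoas myofibrils tested at calcium giving 25% of maximal rate (pCa25). ATPase activity tracked by pyruvate kinase/lactate dehydrogenase coupling, NADH oxidation read as absorbance at 340 nm, in PM12 buffer (12 mM Pipes, 2 mM MgCl2, 1 mM DTT, pH 6.8).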

Compound | Mean AC1.4
2-{[2-(4-f1uorophenyl)-2- methylpropyl]amino}-5,6,7,8- tetrahydropyridino[4,3- d]pyrimidine-6-carboxamide | D (D=>20 uM)
NC(=O)c1ccc2nc(NC3(c4ncccc4F)CCC3)ncc2c1 [2-{[(3-fluoro-2-pyridyl)cyclobutyl]amino} quinazoline-6-carboxamide] | D (D=>20 uM)
CC(C)(Nc1ncc(-c2ncc(C(N)=O)o2)cn1)c1ncccc1Cl [2-(2-{[1-(3-chloro(2-pyridyl))-isopropyl]amino}pyrimidin-5-yl)-1,3-oxazole-5-carboxamide] | D (D=>20 uM)
CC(C)(Nc1ncc(-c2cn3ccc(C(N)=O)cc3n2)cn1)c1ncccc1Cl [2-(2-{[1-(3-chloro(2-pyridyl))-isopropyl]amino}pyrimidin-5-yl)-4-hydroimidazo[1,2-a]pyridine-7-carboxamide] | D (D=>20 uM)
Cc1nc(NC[C@]2(c3ncccc3F)C[C@H](F)C2)ncc1-c1ccc(CC(=O)O)cc1 [2-{4-[2-({[3-fluoro-1-(3-fluoro(2-pyridyl))cyclobutyl]methyl}amino)-4-methylpyrimidin-5-yl]phenyl}acetic acid] | D (D=>20 uM)
O=C(O)c1ccc(O)c(-c2cnc(NC[C@]3(c4ncccc4F)C[C@H](F)C3)nc2)c1 [3-[2-({[3-fluoro-1-(3-fluoro(2-pyridyl))cyclobutyl]methyl}amino)pyrimidin-5-yl]-4-hydroxybenzoic acid] | A (A=<1 uM)
CC(C)[C@@H](Nc1ncc(-c2ncc(C#N)s2)cn1)c1ncccc1Cl [2-(2-{[(1R)-1-(3-chloro(2-pyridyl))-2-methylpropyl]amino}pyrimidin-5-yl)-1,3-thiazole-5-carbonitrile] | D (D=>20 uM)
NC(=O)c1cccc(-c2cnc(NCC3(c4ncccc4F)CC(F)C3)nc2)c1 (stereo not shown) [3-[2-({[3-fluoro-1-(3-fluoro(2-pyridyl))cyclobutyl]methyl}amino)pyrimidin-5-yl]benzamide] | A (A=<1 uM)
O=c1cc(O)ccn1-c1cnc(NC[C@]2(c3ncccc3F)C[C@H](F)C2)nc1 [1-[2-({[3-fluoro--1-(3-fluoro(2-pyridyl))cyclobutyl]methyl)amino)pyrimidin-5-yl]-4-hydroxyhydropyridin-2-one] | D (D=>20 uM)
CC(C)(CNc1ncc(-c2cccc(C(N)=O)c2)cn1)c1ccc(F)cc1 [3-(2-{[2-(4-fluorophenyl)-2-methylpropyl]amino}pyrimidin-5-yl)benzamide] | A (A=<1 uM)
CC(C)(Nc1ncc(-c2csc(C(N)=O)n2)cn1)c1ncccc1Cl [4-(2-{[1-(3-chloro(2-pyridyl))-isopropyl]amino}pyrimidin-5-yl)-1,3-thiazole-2-carboxamide] | C (C=10-20 uM)
CC(C)(Nc1ncc(-c2ncc(C(N)=O)s2)cn1)c1ncccc1F [2-(2-{[1-(3-fluoro(2-pyridyl))-isopropyl]amino}pyrimidin-5-yl)-1,3-thiazole-5-carboxamide] | D (D=>20 uM)

Second part, the compound after the results:

Mean AC1.4 | Compound
D (D=>20 uM) | COC(=O)c1ccn(-c2cnc(NC[C@]3(c4ncccc4F)C[C@H](F)C3)nc2)c1 [methyl 1-[2-({[3-fluoro-1-(3-fluoro(2-pyridyl))cyclobutyl]methyl}amino)pyrimidin-5-yl]pyrrole-3-carboxylate]
A (A=<1 uM) | NC(=O)c1cc(-c2cnc(NC[C@]3(c4ncccc4F)C[C@H](F)C3)nc2)ccc1O [5-[2-({[3-fluoro-1-(3-fluoro(2-pyridyl))cyclobutyl]methyl)amino)pyrimidin-5-yl]-2-hydroxybenzamide]
D (D=>20 uM) | Cc1cc(NC(=O)c2cnc(NCC3(c4ncccc4F)CCC3)nc2)[nH]n1 [[2-({[(3-fluoro(2-pyridyl))cyclobutyl]methyl}amino)pyrimidin-5-yl]-N-(3-methylpyrazol-5-yl)carboxamide]
A (A=<1 uM) | CS(=O)(=O)NC(=O)c1cccc(-c2cnc(NCC3(c4ncccc4F)CC(F)C3)nc2)c1 (stereo not shown) [{3-[2-({[3-fluoro-1-(3-fluoro(2-pyridyl))cyclobutyl]methyl}amino)pyrimidin-5-yl]phenyl}-N-(methylsulfonyl)carboxamide]
D (D=>20 uM) | COc1ccc(-c2cnc(NC[C@]3(c4ncccc4F)C[C@H](F)C3)nc2)cn1 [{[3-fluoro-1-(3-fluoro(2-pyridyl))cyclobutyl]methyl} [5-(6-methoxy(3-pyridyl))pyrimidin-2-yl]amine]
D (D=>20 uM) | COC(=O)c1cc(-c2cnc(NC(C)(C)c3ncccc3Cl)nc2)ncn1 [methyl 6-(2-{[1-(3-chloro(2-pyridyl))-isopropyl]amino}pyrimidin-5-yl)pyrimidine-4-carboxylate]
B (B=1-10 uM) | CS(=O)(=O)N1CC(NC(=O)c2cccc(-c3cnc(NC[C@]4(c5ncccc5F)C[C@H](F)C4)nc3)c2)C1 [{3-[2-({[3-fluoro-1-(3-fluoro(2-pyridyl))cyclobutyl]methyl}amino)pyrimidin-5-yl]phenyl}-N-[1-(methylsulfonyl)azetidin-3-yl]carboxamide]
B (B=1-10 uM) | CC(C)(Nc1ncc(-c2cnnc(C(N)=O)c2)cn1)c1ncccc1Cl [5-(2-{[1-(3-chloro(2-pyridyl))-isopropyl]amino)pyrimidin-5-yl)pyridazine-3-carboxamide]
D (D=>20 uM) | CC(C)(Nc1nccc(-c2nccs2)n1)c1ncccc1Cl [[1-(3-chloro(2-pyridyl))-isopropyl](4-(1,3-thiazol-2-yl)pyrimidin-2-yl)amine]
D (D=>20 uM) | CC(C)(Nc1ncc(-c2nc(CN)cs2)cn1)c1ncccc1F [{5-[4-(aminomethyl)(1,3-thiazol-2-yl)]pyrimidin-2-yl}[1-(3-fluoro(2-pyridyl))-isopropyl]amine]
C (C=10-20 uM) | CC(C)(Nc1ncc(-c2ncc(CNC(=O)c3cnc(O)[nH]3)s2)cn1)c1ncccc1F [N-{[2-(2-{[1-(3-fluoro(2-pyridyl))-isopropyl}amino}pyrimidin-5-yl)(1,3-thiazol-5-yl)]methyl}(2-hydroxyimidazol-5-yl)carboxamide]
A (A=<1 uM) | NC(=O)c1n[nH]c2cc(F)c(-c3cnc(NC4(c5ncccc5F)CCC4)nc3)cc12 [6-fluoro-5-(2-{[(3-fluoro(2-pyridyl))cyclobutyl]amino}pyrimidin-5-yl)-1H-indazole-3-carboxamide]
B (B=1-10 uM) | Nc1ncc(F)c(-c2cnc(NC[C@]3(c4ncccc4F)C[C@H](F)C3)nc2)n1 [[5-(2-amino-5-fluoropyrimidin-4-yl)pyrimidin-2-yl]{[3-fluoro-1-(3-fluoro(2-pyridyl))cyclobutyl]methyl}amine]
C (C=10-20 uM) | Fc1cccnc1C1(CNc2ncc(-c3ncc[nH]3)cn2)CCC1 [{[(3-fluoro(2-pyridyl))cyclobutyl]methyl}(5-imidazol-2-ylpyrimidin-2-yl)amine]
B (B=1-10 uM) | CC(=O)N1CC(NC(=O)c2cccc(-c3cnc(NC[C@]4(c5ncccc5F)C[C@H](F)C4)nc3)c2)C1 [N-(1-acetylazetidin-3-yl){3-[2-({[3-fluoro-1-(3-fluoro(2-pyridyl))cyclobutyl]methyl}amino)pyrimidin-5-yl]phenyl}carboxamide]
D (D=>20 uM) | CS(=O)(=O)NCCNC(=O)c1cnc(NCC2(c3ncccc3F)CCC2)nc1 [[2-({[(3-fluoro(2-pyridyl))cyclobutyl]methyl}amino)pyrimidin-5-yl]-N-[(methylsulfonyl)amino]ethyl} carboxamide]
